Drawing on ChEMBL document CHEMBL4513152, “CO-ADD screening of Yantai University (China) compounds”, this text covers MIC and CC50 for 8 compounds.

The test system of test [1] is Klebsiella pneumoniae. Nature of the test: microbe, parasite or virus in culture. The following applies: ATCC 700603, 18 h, ASSAY_TEST Inhibition of Bacterial Growth, detection method Absorption (OD600), MEDIA CAMHB, plate type 384well, NBS, CORNING #3640.
Description: Antibacterial activity against Klebsiella pneumoniae MDR ATCC 70063 (CO-ADD:GN_003); MIC in CAMBH media using NBS plates, by OD(600)
For test [2], the system named is Cryptococcus neoformans.
Description: Antifungal activity against Cryptococcus neoformans H99 ATCC 208821 (CO-ADD:FG_002); MIC in YNB media using NBS plates, by Resazurin OD(600-570)
In test [3] the test system is Escherichia coli. Nature of the test: microbe, parasite or virus in culture. The note with it: ATCC 25922, 18 h, ASSAY_TEST Inhibition of Bacterial Growth, detection method Absorption (OD600), MEDIA CAMHB, plate type 384well, NBS, CORNING #3640.
Description: Antibacterial activity against Escherichia coli ATCC 25922 (CO-ADD:GN_001); MIC in CAMBH media using NBS plates, by OD(600)
Test [4] deals with HEK293. Nature of the test: cells. In kind it is functional. The following applies: Homo sapiens, ATCC CRL1573, HEK293; ASSAY_TEST Inhibition of Cell Viability; detection method Resazurin; Fluorescence (ex560/em590); MEDIA DMEM with 10% FBS; plate type 384well; TC; CORNING #3712; time 18 hr. A general note: Alamar Blue is a resazurin reagent that responds to reducing activity.
Test [5] relates to Pseudomonas aeruginosa. Nature of the test: microbe, parasite or virus in culture. The note with it: ATCC 27853, 18 h, ASSAY_TEST Inhibition of Bacterial Growth, detection method Absorption (OD600), MEDIA CAMHB, plate type 384well, NBS, CORNING #3640.
Description: Antibacterial activity against Pseudomonas aeruginosa ATCC 27853 (CO-ADD:GN_042); MIC in CAMBH media using NBS plates, by OD(600)
Test [6] has as its system Staphylococcus aureus. Nature of the test: microbe, parasite or virus in culture. The following applies: ATCC 43300, 18 h, ASSAY_TEST Inhibition of Bacterial Growth, detection method Absorption (OD600), MEDIA CAMHB, plate type 384well, NBS, CORNING #3640.
Description: Antibacterial activity against Staphylococcus aureus MRSA ATCC 43300 (CO-ADD:GP_020); MIC in CAMBH media, using NBS plates, by OD(600)
Test [7] deals with Candida albicans. As to the kind of experiment: microbe, parasite or virus in culture. The note with it: ATCC 90028, ASSAY_TEST Inhibition of Fungal Growth, detection method Absorption (OD530), plate type 384well, NBS, CORNING #3640.
Description: Antifungal activity against Candida albicans ATCC 90028 (CO-ADD:FG_001); MIC in YNB media using NBS plates, by OD630
Test [8] deals with Acinetobacter baumannii. Nature of the test: microbe, parasite or virus in culture. The note with it: ATCC 19606, 18 h, ASSAY_TEST Inhibition of Bacterial Growth, detection method Absorption (OD600), MEDIA CAMHB, plate type 384well, NBS, CORNING #3640.
Description: Antibacterial activity against Acinetobacter baumannii ATCC 19606 (CO-ADD:GN_034); MIC in CAMBH media using NBS plates, by OD600

Values after ≈ are worked out from the molar mass of the structure shown. Some results are limits rather than exact numbers.

As for `CC(=O)O[C@H]1C[C@@]2(C)C(C[C@@H](O)C3[C@@]4(C)CC[C@@H](O)[C@@H](C)C4CC[C@@]32C)/C1=C(\CCC=C(C)C)C(=O)On1nnc2ccc(Cl)cc21` (some centres undefined), the MIC in test [1] was more than 32 µg/mL; in test [2], more than 32 µg/mL; in test [3], more than 32 µg/mL; in test [5], more than 32 µg/mL; in test [6], not above 0.25 µg/mL; in test [7], more than 32 µg/mL. In test [8], this compound returned an MIC of more than 32 µg/mL. Moreover, the CC50 (in general, the concentration giving 50% cytotoxicity) in test [4] is more than 32 µg/mL.
As for `CC(=O)O[C@H]1C[C@@]2(C)C(C[C@@H](O)C3[C@@]4(C)CC[C@@H](OC(=O)c5ccccc5C(=O)O)[C@@H](C)C4CC[C@@]32C)/C1=C(\CCC=C(C)C)C(=O)OCc1ccccc1` (some centres undefined), the MIC was more than 32 µg/mL in test [1]; more than 32 µg/mL in test [2]; more than 32 µg/mL in test [3]; more than 32 µg/mL in test [5]; 32 µg/mL (≈ 42.4 µM) in test [6]; more than 32 µg/mL in test [7]. Also, the MIC in test [8] is more than 32 µg/mL. This compound came in with a CC50 in test [4] of 20.6 µg/mL (≈ 27.3 µM).
Regarding `CC(=O)O[C@H]1C[C@@]2(C)C(C[C@@H](O)C3[C@@]4(C)CC[C@@H](O)[C@@H](C)C4CC[C@@]32C)/C1=C(\CCC=C(C)C)C(=O)O` (some centres undefined), the MIC is more than 32 µg/mL in test [1]; more than 32 µg/mL in test [2]; more than 32 µg/mL in test [3]; more than 32 µg/mL in test [5]; not above 0.25 µg/mL in test [6]; more than 32 µg/mL in test [7]. Besides, the MIC in test [8] was more than 32 µg/mL. The CC50 in test [4] is more than 32 µg/mL.
For `CCN/C(=N\CCCN(C)C)OC(=O)/C(CCC=C(C)C)=C1/C2C[C@@H](O)C3[C@@]4(C)CC[C@@H](O)[C@@H](C)C4CC[C@]3(C)[C@@]2(C)C[C@@H]1OC(C)=O` (some centres undefined), the MIC was more than 32 µg/mL in test [1]; more than 32 µg/mL in test [2]; more than 32 µg/mL in test [3]; more than 32 µg/mL in test [5]; 8 µg/mL (≈ 11.9 µM) in test [6]; more than 32 µg/mL in test [7]. In test [8], this compound showed an MIC of more than 32 µg/mL. This compound came in with a CC50 in test [4] of 15.4 µg/mL (≈ 22.9 µM).
With `CC(=O)O[C@H]1C[C@@]2(C)C(C[C@@H](O)C3[C@@]4(C)CC[C@@H](O)[C@@H](C)C4CC[C@@]32C)/C1=C(\CCC=C(C)C)C(=O)O/C(=N/C1CCCCC1)NC1CCCCC1` (some centres undefined), the MIC in test [1] was more than 32 µg/mL; in test [2], more than 32 µg/mL; in test [3], more than 32 µg/mL; in test [5] it was more than 32 µg/mL; in test [6] it was 32 µg/mL (≈ 44.3 µM); in test [7] it was more than 32 µg/mL. The compound also had an MIC in test [8] of more than 32 µg/mL. The same compound showed a CC50 in test [4] of 19.9 µg/mL (≈ 27.5 µM).
`CC(=O)O[C@H]1C[C@@]2(C)C(C[C@@H](O)C3[C@@]4(C)CC[C@@H](OC(=O)CCCCCN)[C@@H](C)C4CC[C@@]32C)/C1=C(\CCC=C(C)C)C(=O)OCc1ccccc1` (some centres undefined): the MIC was more than 32 µg/mL in test [1]; 16 µg/mL (≈ 22.2 µM) in test [2]; more than 32 µg/mL in test [3]; more than 32 µg/mL in test [5]; 16 µg/mL (≈ 22.2 µM) in test [6]; 32 µg/mL (≈ 44.4 µM) in test [7]. In test [8], this compound gave an MIC of more than 32 µg/mL. The CC50 in test [4] was 8.27 µg/mL (≈ 11.5 µM).
Take `CC(=O)O[C@H]1C[C@@]2(C)C(C[C@@H](O)C3[C@@]4(C)CC[C@@H](OC(=O)C(N)Cc5ccccc5)[C@@H](C)C4CC[C@@]32C)/C1=C(\CCC=C(C)C)C(=O)OCc1ccccc1` (some centres undefined): the MIC in test [1], in test [2], in test [3], in test [5], in test [6] and in test [7] was more than 32 µg/mL each time. Further, the MIC in test [8] is more than 32 µg/mL. The CC50 in test [4] was more than 32 µg/mL.
`CC(=O)O[C@H]1C[C@@]2(C)C(C[C@@H](O)C3[C@@]4(C)CC[C@@H](OC(=O)CN)[C@@H](C)C4CC[C@@]32C)/C1=C(\CCC=C(C)C)C(=O)OCc1ccccc1` (some centres undefined): the MIC in test [1] was more than 32 µg/mL; in test [2], 16 µg/mL (≈ 24.1 µM); in test [3], more than 32 µg/mL; in test [5], more than 32 µg/mL; in test [6], more than 32 µg/mL; in test [7] it was 32 µg/mL (≈ 48.2 µM). In test [8], the MIC is more than 32 µg/mL. Besides, the CC50 in test [4] is 10.8 µg/mL (≈ 16.3 µM).
